Assay results from the NIST ThermoML archive (doi:10.1016/j.fluid.2004.10.028).

Experiment: wn = mass fraction of the nth substance listed
Details: Liquid, Capillary tube (Ostwald / Ubbelohde) method

O=S(=O)([O-])[O-].[Na+].[Na+] [sodium sulfate] + O
viscosity [mPa·s]
Details | 10000 kPa | 20000 kPa | 30000 kPa | 40000 kPa
497.8 K, w1 = 0.15 | – | – | 0.1978 | 0.2001
498.22 K, w1 = 0.1 | 0.1618 | 0.1641 | 0.1678 | 0.1711
498.3 K, w1 = 0.015 | 0.1248 | 0.1286 | 0.1307 | 0.1325
498.7 K, w1 = 0.07 | 0.1451 | 0.1489 | 0.1506 | 0.1533
498.7 K, w1 = 0.26 | 0.2923 | 0.2976 | 0.3018 | 0.309
499.3 K, w1 = 0.05 | 0.1352 | 0.1363 | 0.1392 | 0.143
520.5 K, w1 = 0.26 | 0.2636 | 0.2691 | 0.2746 | 0.2813
520.51 K, w1 = 0.23 | 0.2338 | 0.2387 | 0.2415 | 0.249
520.64 K, w1 = 0.015 | 0.1128 | 0.1165 | 0.1191 | 0.1209
522.4 K, w1 = 0.15 | 0.1686 | 0.1709 | 0.1748 | 0.179
523.1 K, w1 = 0.07 | 0.1298 | 0.1324 | 0.1367 | 0.1385
523.3 K, w1 = 0.03 | 0.115 | 0.1169 | 0.1196 | 0.1219
523.8 K, w1 = 0.2 | 0.2021 | 0.2076 | 0.2105 | 0.216
524.7 K, w1 = 0.05 | 0.1204 | 0.1231 | 0.1267 | 0.1286
525.4 K, w1 = 0.1 | 0.143 | 0.1469 | 0.1493 | 0.1524
545.3 K, w1 = 0.05 | 0.1097 | 0.112 | 0.1143 | 0.1177
545.4 K, w1 = 0.2 | 0.184 | 0.1879 | 0.1923 | 0.1989
546.2 K, w1 = 0.07 | 0.1171 | 0.1197 | 0.1224 | 0.1267
547.7 K, w1 = 0.15 | 0.151 | 0.1548 | 0.1589 | 0.1634
547.9 K, w1 = 0.015 | 0.1 | 0.1025 | 0.1068 | 0.1089
547.9 K, w1 = 0.1 | 0.1296 | 0.1329 | 0.136 | 0.1399
548.7 K, w1 = 0.23 | 0.2061 | 0.2106 | 0.2186 | 0.223
549.9 K, w1 = 0.03 | 0.1023 | 0.1065 | 0.1086 | 0.1109
570.5 K, w1 = 0.15 | 0.1354 | 0.1399 | 0.1463 | 0.1496
572.62 K, w1 = 0.03 | 0.092 | 0.0967 | 0.0992 | 0.102
572.96 K, w1 = 0.05 | 0.0965 | 0.0998 | 0.1029 | 0.1066
573.2 K, w1 = 0.1 | 0.1143 | 0.1178 | 0.1204 | 0.1266
573.5 K, w1 = 0.07 | 0.1031 | 0.1068 | 0.1092 | 0.1143
